US8877759B2, “Aminopyrazines as ATR kinase inhibitors” (Vertex Pharnaceuticals Incorporated, priority 2011, dated 2014)

Molecular target: T1, full-length ATR (Homo sapiens, UniProt Q13535)
T1 construct: Assays were carried out at 25° C. in the presence of 5 nM full-length ATR
Experiment: ATR Inhibition Assay (radioactive-phosphate incorporation)
Type: biochemical
Conditions: for ATR Ki: Ki(app), 5 nM full-length ATR, 10 μM [γ-33P]ATP, 800 μM target peptide, 25° C.
Protocol: Compounds were screened for their ability to inhibit ATR kinase using a radioactive-phosphate incorporation assay. Assays were carried out in a mixture of 50 mM Tris/HCl (pH 7.5), 10 mM MgCl2 and 1 mM DTT.
Assays were carried out at 25° C. in the presence of 5 nM full-length ATR. An assay stock buffer solution was prepared containing all of the reagents listed above, with the exception of ATP and the test compound of interest. […] The plate was pre-incubated for 10 minutes at 25° C. and the reaction initiated by addition of 15 μL [γ-33P]ATP (final concentration 10 μM).
The reaction was stopped after […] by the addition of 30 μL 0.1M phosphoric acid containing 2 mM ATP. A multiscreen phosphocellulose filter 96-well plate (Millipore, Cat no. MAPHN0B50) was pretreated with 100 μL 0.2M phosphoric acid prior to the addition of 45 μL of the stopped assay mixture. The plate was washed with 5×200 μL 0.2M phosphoric acid.
After removing mean background values for all of the data points, Ki(app) data were calculated from non-linear regression analysis of the initial rate data using the Prism software package (GraphPad Prism version 3.0cx for Macintosh, GraphPad Software, San Diego Calif., USA).

T1 sequence (Q13535 whole entry): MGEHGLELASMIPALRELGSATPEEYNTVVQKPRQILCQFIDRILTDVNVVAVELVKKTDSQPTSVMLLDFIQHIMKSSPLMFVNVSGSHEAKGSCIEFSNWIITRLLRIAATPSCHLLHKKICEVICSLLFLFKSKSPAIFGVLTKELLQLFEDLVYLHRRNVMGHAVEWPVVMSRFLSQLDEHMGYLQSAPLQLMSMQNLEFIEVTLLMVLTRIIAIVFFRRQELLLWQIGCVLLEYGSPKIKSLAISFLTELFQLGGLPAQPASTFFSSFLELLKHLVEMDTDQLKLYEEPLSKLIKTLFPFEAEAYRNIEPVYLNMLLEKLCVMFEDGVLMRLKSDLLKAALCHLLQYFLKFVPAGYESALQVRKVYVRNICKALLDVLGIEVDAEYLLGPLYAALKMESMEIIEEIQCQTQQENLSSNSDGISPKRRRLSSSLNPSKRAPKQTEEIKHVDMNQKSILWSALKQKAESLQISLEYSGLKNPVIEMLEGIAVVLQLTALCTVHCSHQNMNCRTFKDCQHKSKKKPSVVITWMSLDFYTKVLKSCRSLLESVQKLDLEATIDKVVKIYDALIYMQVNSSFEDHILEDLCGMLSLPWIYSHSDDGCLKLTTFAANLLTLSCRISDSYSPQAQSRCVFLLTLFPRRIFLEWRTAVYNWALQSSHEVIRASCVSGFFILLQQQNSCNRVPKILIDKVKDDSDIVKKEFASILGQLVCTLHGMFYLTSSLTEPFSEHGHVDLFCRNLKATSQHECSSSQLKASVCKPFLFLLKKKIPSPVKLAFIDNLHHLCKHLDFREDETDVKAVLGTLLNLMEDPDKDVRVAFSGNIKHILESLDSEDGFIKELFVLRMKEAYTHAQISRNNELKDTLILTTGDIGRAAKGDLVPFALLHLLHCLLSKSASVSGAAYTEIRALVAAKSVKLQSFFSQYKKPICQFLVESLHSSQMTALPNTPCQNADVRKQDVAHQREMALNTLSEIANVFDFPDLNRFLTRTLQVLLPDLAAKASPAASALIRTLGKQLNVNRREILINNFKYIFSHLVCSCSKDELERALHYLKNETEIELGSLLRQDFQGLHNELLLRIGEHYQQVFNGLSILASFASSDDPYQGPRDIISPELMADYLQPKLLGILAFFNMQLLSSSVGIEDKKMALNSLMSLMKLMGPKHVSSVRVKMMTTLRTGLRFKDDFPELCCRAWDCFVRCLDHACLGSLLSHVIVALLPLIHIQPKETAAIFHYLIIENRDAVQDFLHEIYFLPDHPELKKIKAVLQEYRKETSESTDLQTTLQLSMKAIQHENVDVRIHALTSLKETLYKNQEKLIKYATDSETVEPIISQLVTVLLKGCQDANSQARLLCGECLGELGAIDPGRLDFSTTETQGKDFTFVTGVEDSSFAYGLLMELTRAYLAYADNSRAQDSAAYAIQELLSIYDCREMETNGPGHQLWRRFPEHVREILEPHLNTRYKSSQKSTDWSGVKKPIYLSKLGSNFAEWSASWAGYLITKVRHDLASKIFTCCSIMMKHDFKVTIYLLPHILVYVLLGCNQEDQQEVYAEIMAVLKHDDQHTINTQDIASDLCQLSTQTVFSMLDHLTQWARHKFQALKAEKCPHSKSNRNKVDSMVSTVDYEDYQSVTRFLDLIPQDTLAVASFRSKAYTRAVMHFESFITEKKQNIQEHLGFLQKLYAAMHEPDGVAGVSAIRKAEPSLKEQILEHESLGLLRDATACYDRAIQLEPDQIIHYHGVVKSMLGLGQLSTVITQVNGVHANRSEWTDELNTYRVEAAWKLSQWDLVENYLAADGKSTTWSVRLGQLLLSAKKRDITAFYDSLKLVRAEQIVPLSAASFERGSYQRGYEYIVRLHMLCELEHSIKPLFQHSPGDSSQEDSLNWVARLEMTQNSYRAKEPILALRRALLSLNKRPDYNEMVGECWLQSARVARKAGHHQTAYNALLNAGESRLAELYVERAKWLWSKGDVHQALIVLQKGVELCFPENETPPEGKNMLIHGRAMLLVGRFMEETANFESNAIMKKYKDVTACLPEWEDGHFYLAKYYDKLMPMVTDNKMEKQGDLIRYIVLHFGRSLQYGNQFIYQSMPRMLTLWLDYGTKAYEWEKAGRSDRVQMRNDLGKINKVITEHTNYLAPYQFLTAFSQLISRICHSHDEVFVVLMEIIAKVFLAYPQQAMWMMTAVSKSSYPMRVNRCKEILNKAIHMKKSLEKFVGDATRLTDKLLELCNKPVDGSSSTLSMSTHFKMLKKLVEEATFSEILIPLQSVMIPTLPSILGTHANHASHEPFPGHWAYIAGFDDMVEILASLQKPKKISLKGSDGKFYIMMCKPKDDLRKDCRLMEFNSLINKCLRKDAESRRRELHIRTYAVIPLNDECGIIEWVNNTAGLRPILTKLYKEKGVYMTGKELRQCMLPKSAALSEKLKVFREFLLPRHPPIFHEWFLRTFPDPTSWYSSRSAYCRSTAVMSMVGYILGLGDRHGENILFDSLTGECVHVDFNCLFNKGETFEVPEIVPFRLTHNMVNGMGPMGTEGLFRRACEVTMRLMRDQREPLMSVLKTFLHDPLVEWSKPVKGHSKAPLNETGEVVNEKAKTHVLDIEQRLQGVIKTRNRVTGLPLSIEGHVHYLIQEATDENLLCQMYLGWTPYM

In the case of `N#CC1(c2cc(-c3cnc(N)c(-c4cc(-c5ccc(CO)cc5)no4)n3)ccn2)CCNCC1` [Compound I-31, 4-[4-[5-amino-6-[3-[4-(hydroxymethyl)phenyl]isoxazol-5-yl]pyrazin-2-yl]-2-pyridyl]piperidine-4-carbonitrile], the “ATR Ki” value is reported as “+++ (Compounds with a Ki value >5 nM but ≦1 nM are marked with “+++.”)”.
For `N#CC1(c2cc(-c3cnc(N)c(-c4cc(-c5ccc(O)cc5)no4)n3)ccn2)CCNCC1` [Compound I-32, 4-[4-[5-amino-6-[3-(4-hydroxyphenyl)isoxazol-5-yl]pyrazin-2-yl]-2-pyridyl]piperidine-4-carbonitrile], the “ATR Ki” value was “+++ (Compounds with a Ki value >5 nM but ≦1 nM are marked with “+++.”)”.
`N#CC1(c2cc(-c3cnc(N)c(-c4cc(-c5ccc6[nH]ccc6c5)no4)n3)ccn2)CCNCC1` [Compound I-33, 4-[4-[5-amino-6-[3-(1H-indol-5-yl)isoxazol-5-yl]pyrazin-2-yl]-2-pyridyl]piperidine-4-carbonitrile] was tested, and the “ATR Ki” value was “+++ (Compounds with a Ki value >5 nM but ≦1 nM are marked with “+++.”)”.
In the case of `N#CC1(c2cc(-c3cnc(N)c(-c4cc(-c5ccc(CN[C@H]6CCOC6)cc5)no4)n3)ccn2)CC1` [Compound I-34, 1-[4-[5-amino-6-[3-[4-[[[(3S)-tetrahydrofuran-3-yl]amino]methyl]phenyl]isoxazol-5-yl]pyrazin-2-yl]-2-pyridyl]cyclopropanecarbonitrile], the Ki is reported as < 1 nM.
In the case of `N#CC1(c2cc(-c3cnc(N)c(-c4cc(-c5ccc(CN[C@H]6CCOC6)cc5)no4)n3)ccn2)CCC1` [Compound I-35, 1-[4-[5-amino-6-[3-[4-[[[(3S)-tetrahydrofuran-3-yl]amino]methyl]phenyl]isoxazol-5-yl]pyrazin-2-yl]-2-pyridyl]cyclobutanecarbonitrile], the Ki is reported as < 1 nM.
In the case of `N#CC1(c2cc(-c3cnc(N)c(-c4cc(-c5ccc(CN[C@H]6CCOC6)cc5)no4)n3)ccn2)CCCC1` [Compound I-36, 1-[4-[5-amino-6-[3-[4-[[[(3S)-tetrahydrofuran-3-yl]amino]methyl]phenyl]isoxazol-5-yl]pyrazin-2-yl]-2-pyridyl]cyclopentanecarbonitrile], the Ki is reported as < 1 nM.
With `CN1CCCC(C#N)(c2cc(-c3cnc(N)c(-c4cc(-c5ccccc5)no4)n3)ccn2)C1` (centres unmarked) [Compound I-37, 3-[4-[5-amino-6-(3-phenylisoxazol-5-yl)pyrazin-2-yl]-2-pyridyl]-1-methyl-piperidine-3-carbonitrile] the Ki was < 1 nM.
For `COCCNC(=O)C(C)(C)c1cc(-c2cnc(N)c(-c3cc(-c4ccccc4)no3)n2)ccn1` [Compound I-38, 2-[4-[5-amino-6-(3-phenylisoxazol-5-yl)pyrazin-2-yl]-2-pyridyl]-N-(2-methoxyethyl)-2-methyl-propanamide], the Ki was 5 to 20 nM.
`CN(C)C(=O)C(C)(C)c1cc(-c2cnc(N)c(-c3cc(-c4ccccc4)no3)n2)ccn1` [Compound I-39, 2-[4-[5-amino-6-(3-phenylisoxazol-5-yl)pyrazin-2-yl]-2-pyridyl]-N,N,2-trimethyl-propanamide] was tested, and the “ATR Ki” value was “+++ (Compounds with a Ki value >5 nM but ≦1 nM are marked with “+++.”)”.
`CC(C)(C(=O)NCCCN)c1cc(-c2cnc(N)c(-c3cc(-c4ccccc4)no3)n2)ccn1` [Compound I-40, 2-[4-[5-amino-6-(3-phenylisoxazol-5-yl)pyrazin-2-yl]-2-pyridyl]-N-(3-aminopropyl)-2-methyl-propanamide] was tested, and the “ATR Ki” value was “+++ (Compounds with a Ki value >5 nM but ≦1 nM are marked with “+++.”)”.
With `CC(C)(C#N)c1cc(-c2cnc(N)c(-c3cc(-c4ccc(C5CNCCN5)cc4)no3)n2)ccn1` (centres unmarked) [Compound I-41, 2-[4-[5-amino-6-[3-(4-piperazin-2-ylphenyl)isoxazol-5-yl]pyrazin-2-yl]-2-pyridyl]-2-methyl-propanenitrile] the Ki was < 1 nM.
With `N#CC1(c2cc(-c3cnc(N)c(-c4cc(-c5ccc(CN[C@H]6CCOC6)cc5)no4)n3)ccn2)CCOCC1` [Compound I-42, 4-[4-[5-amino-6-[3-[4-[[[(3S)-tetrahydrofuran-3-yl]amino]methyl]phenyl]isoxazol-5-yl]pyrazin-2-yl]-2-pyridyl]tetrahydropyran-4-carbonitrile] the Ki was < 1 nM.
In the case of `C[C@H](N)c1ccc(-c2nnc(-c3nc(-c4ccnc(C5(C#N)CCC5)c4)cnc3N)o2)cc1` [Compound I-43, 1-[4-[5-amino-6-[5-[4-[(1S)-1-aminoethyl]phenyl]-1,3,4-oxadiazol-2-yl]pyrazin-2-yl]-2-pyridyl]cyclobutanecarbonitrile], the Ki is reported as < 1 nM.
In the case of `C[C@H](N)c1ccc(-c2nnc(-c3nc(-c4ccnc(C(C)(C)C#N)c4)cnc3N)o2)cc1` [Compound I-44, 2-[4-[5-amino-6-[5-[4-[(1S)-1-aminoethyl]phenyl]-1,3,4-oxadiazol-2-yl]pyrazin-2-yl]-2-pyridyl]-2-methyl-propanenitrile], the Ki is reported as < 1 nM.
With `CC(C)(C(N)=O)c1cc(-c2cnc(N)c(-c3cc(-c4ccccc4)no3)n2)ccn1` [Compound I-45, 2-[4-[5-amino-6-(3-phenylisoxazol-5-yl)pyrazin-2-yl]-2-pyridyl]-2-methyl-propanamide] the “ATR Ki” value was “+++ (Compounds with a Ki value >5 nM but ≦1 nM are marked with “+++.”)”.
`CC(C)(C(=O)NCCO)c1cc(-c2cnc(N)c(-c3cc(-c4ccccc4)no3)n2)ccn1` [Compound I-46, 2-[4-[5-amino-6-(3-phenylisoxazol-5-yl)pyrazin-2-yl]-2-pyridyl]-N-(2-hydroxyethyl)-2-methyl-propanamide] was tested, and the Ki was < 1 nM.
`CC(C)(C(=O)N1CCC1)c1cc(-c2cnc(N)c(-c3cc(-c4ccccc4)no3)n2)ccn1` [Compound I-47, 2-[4-[5-amino-6-(3-phenylisoxazol-5-yl)pyrazin-2-yl]-2-pyridyl]-1-(azetidin-1-yl)-2-methyl-propan-1-one] was tested, and the Ki was 5 to 20 nM.
With `CC(C)(C#N)c1cc(-c2cnc(N)c(-c3cc(-c4ccc(CNC5CC5)cc4)no3)n2)ccn1` [Compound I-48, 2-[4-[5-amino-6-[3-[4-[(cyclopropylamino)methyl]phenyl]isoxazol-5-yl]pyrazin-2-yl]-2-pyridyl]-2-methyl-propanenitrile] the Ki was < 1 nM.
`CNCc1ccc(-c2cc(-c3nc(-c4ccnc(C(C)C#N)c4)cnc3N)on2)cc1` (centres unmarked) [Compound I-49, 2-[4-[5-amino-6-[3-[4-(methylaminomethyl)phenyl]isoxazol-5-yl]pyrazin-2-yl]-2-pyridyl]propanenitrile] was tested, and the Ki was < 1 nM.
`CC(C#N)c1cc(-c2cnc(N)c(-c3cc(-c4ccccc4)no3)n2)ccn1` (centres unmarked) [Compound I-50, 2-[4-[5-amino-6-(3-phenylisoxazol-5-yl)pyrazin-2-yl]-2-pyridyl]propanenitrile] was tested, and the Ki was < 1 nM.
In the case of `CC(C)(C#N)c1cc(-c2cnc(N)c(-c3cc(-c4ccc(O)cc4)no3)n2)ccn1` [Compound I-51, 2-[4-[5-amino-6-[3-(4-hydroxyphenyl)isoxazol-5-yl]pyrazin-2-yl]-2-pyridyl]-2-methyl-propanenitrile], the Ki is reported as < 1 nM.
`CC(C)(C#N)c1cc(-c2cnc(N)c(-c3nnc(-c4ccc5c(c4)CCNC5)o3)n2)ccn1` [Compound I-52, 2-[4-[5-amino-6-[5-(1,2,3,4-tetrahydroisoquinolin-6-yl)-1,3,4-oxadiazol-2-yl]pyrazin-2-yl]-2-pyridyl]-2-methyl-propanenitrile] was tested, and the “ATR Ki” value was “+++ (Compounds with a Ki value >5 nM but ≦1 nM are marked with “+++.”)”.
For `CC(C)(C#N)c1cc(-c2cnc(N)c(-c3cc(-c4ccc(CNC5CCOCC5)cc4)no3)n2)ccn1` [Compound I-53, 2-(4-(5-amino-6-(3-(4-(((tetrahydro-2H-pyran-4-yl)amino)methyl)phenyl)isoxazol-5-yl)pyrazin-2-yl)pyridin-2-yl)-2-methylpropanenitrile], the Ki was < 1 nM.
For `CC(C)(C#N)c1cc(-c2cnc(N)c(-c3nnc(-c4ccc5c(c4)CNCC5)o3)n2)ccn1` [Compound I-55], the Ki was < 1 nM.
`CN(C)CCOc1ccc(-c2nnc(-c3nc(-c4ccnc(C(C)(C)C#N)c4)cnc3N)o2)cc1` [Compound I-56] was tested, and the Ki was < 1 nM.
In the case of `CC(C)(C#N)c1cc(-c2cnc(N)c(-c3nnc(-c4ccc(CCN)cc4)o3)n2)ccn1` [Compound I-57], the Ki is reported as < 1 nM.
For `CC(C)(C#N)c1cc(-c2cnc(N)c(-c3nnc(-c4cccc(C5CNCCN5)c4)o3)n2)ccn1` (centres unmarked) [Compound I-58], the Ki was 5 to 20 nM.
In the case of `CC(C)(C#N)c1cc(-c2cnc(N)c(-c3cc(-c4ccc(C5COCCN5)cc4)no3)n2)ccn1` (centres unmarked) [Compound I-60], the Ki is reported as < 1 nM.
With `CC(C)(C#N)c1cc(-c2cnc(N)c(-c3nnc(-c4ccc(N5CCCC(N)C5)cc4)o3)n2)ccn1` (centres unmarked) [Compound I-61] the Ki was < 1 nM.
For `CC(C)(C(=O)NCCN)c1cc(-c2cnc(N)c(-c3cc(-c4ccccc4)no3)n2)ccn1` [Compound I-63], the Ki was < 1 nM.
With `CC(C)(C#N)c1cc(-c2cnc(N)c(-c3nnc(-c4ccc(N5CCC[C@H](N)C5)cc4)o3)n2)ccn1` [Compound I-64] the “ATR Ki” value was “+++ (Compounds with a Ki value >5 nM but ≦1 nM are marked with “+++.”)”.
For `CNCCNC(=O)C(C)(C)c1cc(-c2cnc(N)c(-c3cc(-c4ccccc4)no3)n2)ccn1` [Compound I-65], the Ki was 5 to 20 nM.
With `CC(C)(C#N)c1cc(-c2cnc(N)c(-c3nnc(-c4cccc(CCN)c4)o3)n2)ccn1` [Compound I-66] the Ki was < 1 nM.
For `COCC(CO)CNCc1ccc(-c2cc(-c3nc(-c4ccnc(C(C)(C)C#N)c4)cnc3N)on2)cc1` (centres unmarked) [Compound I-67], the Ki was < 1 nM.
`CC(C)(C#N)c1cc(-c2cnc(N)c(-c3nnc(-c4ccc(N5CCCC5CN)cc4)o3)n2)ccn1` (centres unmarked) [Compound I-68] was tested, and the Ki was 5 to 20 nM.
